Data on 14 molecules can be found in patent publication US10538555B2, “Macrocyclic inhibitors of the PD-1/PD-L1 and CD80(B7-1)/PD-L1 protein/protein interactions” (BRISTOL-MYERS SQUIBB COMPANY, priority 2014, dated 2020).

For this assay, the target named is T1, Human PD-L1/PD-1 (Homo sapiens, UniProt Q9NZQ7).
T1 construct: TVMV protease cleavage site (C); made in house; host or cells: HEK293T cells
Kind of assay: HTRF Human PD-L1/PD-1 binding assay (PD-1-Ig/PD-L1-His). To be noted: PD-L1-His 10 nM, PD-1-Ig 20 nM. In outline:
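HTRF competition using HEK293T-expressed human PD-1(25-167)-Ig at 20 nM and PD-L1(18-239)-His at 10 nM, compound incubated first with PD-L1 for 15 min, then with PD-1 for 15 min. Signal read as 665/620 nm ratio 30 min after adding Eu anti-Ig and APC anti-His antibodies.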
Background: Time-resolved FRET reads energy transfer from a long-lived donor to a nearby acceptor.

The mark [1] stands for this setting: class symbol, read-out: HTRF Human PD-L1/PD-1 Binding Assay IC50 Range.

Read-outs that look alike come from different tables or passages of the source. Where a SMILES comes first, the peptide text is derived from it. Bridges are numbered along the chain shown (N, C = ends). [ ]: non-standard residue; d: D form. Phe(3,4,5-F3) = N[C@@H](Cc1cc(F)c(F)c(F)c1)C(=O)O; d(cisHyp) = O=C(O)[C@H]1C[C@@H](O)CN1; Hyp = O=C(O)[C@@H]1C[C@@H](O)CN1; NMeF = CN[C@@H](Cc1ccccc1)C(=O)O; NMehSer = CN[C@@H](CCO)C(=O)O; NMeNle = CCCC[C@H](NC)C(=O)O; hSer = N[C@@H](CCO)C(=O)O; NMeA = CN[C@@H](C)C(=O)O; Orn = NCCC[C@H](N)C(=O)O; dThz = O=C(O)[C@H]1CSCN1; Dab = NCC[C@H](N)C(=O)O; Dap = NC[C@H](N)C(=O)O

T1 sequence (Q9NZQ7 with tags, fused parts or gaps): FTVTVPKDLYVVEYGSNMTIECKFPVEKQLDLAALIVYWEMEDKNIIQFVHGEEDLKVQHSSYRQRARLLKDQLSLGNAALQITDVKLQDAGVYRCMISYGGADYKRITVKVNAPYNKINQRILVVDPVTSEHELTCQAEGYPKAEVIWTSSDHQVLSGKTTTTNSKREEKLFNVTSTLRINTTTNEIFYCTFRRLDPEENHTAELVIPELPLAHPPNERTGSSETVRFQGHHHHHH

As to `CCCC[C@H]1C(=O)N[C@@H](CC(C)C)C(=O)N[C@H](C(=O)NCC(N)=O)CSCC(=O)N[C@@H](Cc2ccc(O)cc2)C(=O)N(C)[C@@H](C)C(=O)N[C@@H](CCN)C(=O)N2CCC[C@H]2C(=O)N[C@@H](Cc2c[nH]cn2)C(=O)N[C@@H](CCC(=O)O)C(=O)N2C[C@H](O)C[C@H]2C(=O)N[C@@H](Cc2c[nH]c3ccccc23)C(=O)N[C@@H](CO)C(=O)N[C@@H](Cc2c[nH]c3ccccc23)C(=O)N(C)[C@@H](CCOC)C(=O)N1C` [Example 10140] ({CH2CO}-Y[NMeA][Dab]PHE[Hyp]WSW[NMehSer](Me)[NMeNle]LCG-NH2; thioether N-14), the IC50 under setting [1] fell in the range of 10 to 99.9 nM.

Regarding `CCCC[C@H]1C(=O)N[C@@H](CCC(=O)O)C(=O)N[C@H](C(=O)NCC(N)=O)CSCC(=O)N[C@@H](Cc2ccc(O)cc2)C(=O)N(C)[C@@H](C)C(=O)N[C@@H](CC(N)=O)C(=O)N2CCC[C@H]2C(=O)N[C@@H](Cc2c[nH]cn2)C(=O)N[C@@H](CCC(N)=O)C(=O)N2C[C@H](O)C[C@H]2C(=O)N[C@@H](Cc2c[nH]c3ccccc23)C(=O)N[C@@H](CO)C(=O)N[C@@H](Cc2c[nH]c3ccccc23)C(=O)N(C)[C@@H](CCOC)C(=O)N1C` [Example 10141] ({CH2CO}-Y[NMeA]NPHQ[Hyp]WSW[NMehSer](Me)[NMeNle]ECG-NH2; thioether N-14), under setting [1], the IC50 fell in the range of 10 to 99.9 nM.

For the molecule `CCCC[C@H]1C(=O)N(C)[C@@H](CCOC)C(=O)N[C@@H](CCC(=O)O)C(=O)N[C@H](C(=O)NCC(N)=O)CSCC(=O)N[C@@H](Cc2ccc(O)cc2)C(=O)N(C)[C@@H](C)C(=O)N[C@@H](CC(=O)O)C(=O)N2CCC[C@H]2C(=O)N[C@@H](Cc2c[nH]cn2)C(=O)N[C@@H](CCC(N)=O)C(=O)N2C[C@H](O)C[C@H]2C(=O)N[C@@H](Cc2c[nH]c3ccccc23)C(=O)N[C@@H](CO)C(=O)N[C@@H](Cc2c[nH]c3ccccc23)C(=O)N1C` [Example 10142] ({CH2CO}-Y[NMeA]DPHQ[Hyp]WSW[NMeNle][NMehSer](Me)ECG-NH2; thioether N-14), the IC50 under setting [1] lay within 10 to 99.9 nM.

`CCCC[C@H]1C(=O)N(C)[C@@H](CCOC)C(=O)N[C@@H](CC(C)C)C(=O)N[C@H](C(=O)NCC(N)=O)CSCC(=O)N[C@@H](Cc2ccc(O)cc2)C(=O)N(C)[C@@H](C)C(=O)N[C@@H](CC(N)=O)C(=O)N2CCC[C@H]2C(=O)N[C@@H](Cc2c[nH]cn2)C(=O)N[C@@H](CCC(N)=O)C(=O)N2C[C@H](O)C[C@H]2C(=O)N[C@@H](Cc2c[nH]c3ccccc23)C(=O)NCC(=O)N[C@@H](Cc2c[nH]c3ccccc23)C(=O)N1C` [Example 10143] ({CH2CO}-Y[NMeA]NPHQ[Hyp]WGW[NMeNle][NMehSer](Me)LCG-NH2; thioether N-14): the IC50 (read-out: HTRF Human PD-L1/PD-1 Binding Assay IC50) came out at 10.9 nM.

For the molecule `CCCC[C@H]1C(=O)N(C)[C@@H](CCOC)C(=O)N[C@@H](CO)C(=O)N[C@H](C(=O)NCC(N)=O)CSCC(=O)N[C@@H](Cc2ccc(O)cc2)C(=O)N(C)[C@@H](C)C(=O)N[C@@H](CC(N)=O)C(=O)N2CCC[C@H]2C(=O)N[C@@H](Cc2c[nH]cn2)C(=O)N[C@@H](CCC(N)=O)C(=O)N2C[C@H](O)C[C@H]2C(=O)N[C@@H](Cc2c[nH]c3ccccc23)C(=O)N[C@@H](CO)C(=O)N[C@@H](Cc2c[nH]c3ccccc23)C(=O)N1C` [Example 10144] ({CH2CO}-Y[NMeA]NPHQ[Hyp]WSW[NMeNle][NMehSer](Me)SCG-NH2; thioether N-14), under setting [1], the IC50 was 1 to 9.9 nM.

For the molecule `CCCC[C@H]1C(=O)N(C)[C@@H](CCOC)C(=O)N[C@@H](CN)C(=O)N[C@H](C(=O)NCC(N)=O)CSCC(=O)N[C@@H](Cc2ccc(O)cc2)C(=O)N(C)[C@@H](C)C(=O)N[C@@H](CC(=O)O)C(=O)N2CCC[C@H]2C(=O)N[C@@H](Cc2c[nH]cn2)C(=O)N[C@@H](CCC(N)=O)C(=O)N2C[C@H](O)C[C@H]2C(=O)N[C@@H](Cc2c[nH]c3ccccc23)C(=O)N[C@@H](CO)C(=O)N[C@@H](Cc2c[nH]c3ccccc23)C(=O)N1C` [Example 10145] ({CH2CO}-Y[NMeA]DPHQ[Hyp]WSW[NMeNle][NMehSer](Me)[Dap]CG-NH2; thioether N-14), under setting [1], the IC50 is 1 to 9.9 nM.

As to `CCCC[C@H]1C(=O)N(C)[C@@H](CCOC)C(=O)N[C@@H](CC(C)C)C(=O)N[C@H](C(=O)NCC(N)=O)CSCC(=O)N[C@@H](Cc2ccc(O)cc2)C(=O)N(C)[C@@H](C)C(=O)N[C@@H](CCN)C(=O)N2CCC[C@H]2C(=O)N[C@@H](Cc2c[nH]cn2)C(=O)N[C@@H](CCC(=O)O)C(=O)N2C[C@H](O)C[C@H]2C(=O)N[C@@H](Cc2c[nH]c3ccccc23)C(=O)N[C@@H](CO)C(=O)N[C@@H](Cc2c[nH]c3ccccc23)C(=O)N1C` [Example 10146] ({CH2CO}-Y[NMeA][Dab]PHE[Hyp]WSW[NMeNle][NMehSer](Me)LCG-NH2; thioether N-14), under setting [1], the IC50 lay in the range of 10 to 99.9 nM.

As for `CCCC[C@H]1C(=O)N(C)[C@@H](CCOC)C(=O)N[C@@H](CCC(=O)O)C(=O)N[C@H](C(=O)NCC(N)=O)CSCC(=O)N[C@@H](Cc2ccc(O)cc2)C(=O)N(C)[C@@H](C)C(=O)N[C@@H](CC(N)=O)C(=O)N2CCC[C@H]2C(=O)N[C@@H](Cc2c[nH]cn2)C(=O)N[C@@H](CCC(N)=O)C(=O)N2C[C@H](O)C[C@H]2C(=O)N[C@@H](Cc2c[nH]c3ccccc23)C(=O)N[C@@H](CO)C(=O)N[C@@H](Cc2c[nH]c3ccccc23)C(=O)N1C` [Example 10147] ({CH2CO}-Y[NMeA]NPHQ[Hyp]WSW[NMeNle][NMehSer](Me)ECG-NH2; thioether N-14), the IC50 under setting [1] lay within 1 to 9.9 nM.

With `CCCC[C@H]1C(=O)N2C[C@H](O)C[C@@H]2C(=O)N[C@@H](CC(=O)O)C(=O)N[C@@H](C(C)C)C(=O)N(C)[C@@H](Cc2ccccc2)C(=O)N[C@@H](CCC(=O)O)C(=O)N2CSC[C@@H]2C(=O)N[C@@H](Cc2c[nH]c3ccccc23)C(=O)N[C@@H](Cc2ccc(O)cc2)C(=O)N[C@@H](CC(C)C)C(=O)N[C@H](C(=O)NCC(N)=O)CSCC(=O)N[C@@H](Cc2cc(F)c(F)c(F)c2)C(=O)N(C)[C@@H](Cc2ccccc2)C(=O)N1C` [Example 10148] ({CH2CO}-[Phe(3,4,5-F3)][NMeF][NMeNle][d(cisHyp)]DV[NMeF]E[dThz]WYLCG-NH2; thioether N-13), under setting [1], the IC50 lay within 1 to 9.9 nM.

Consider `CCCC[C@H]1C(=O)N2C[C@H](O)C[C@@H]2C(=O)N[C@@H](CC(=O)O)C(=O)N[C@@H](C(C)C)C(=O)N(C)[C@@H](Cc2ccccc2)C(=O)N[C@@H](CC(=O)O)C(=O)N2CSC[C@@H]2C(=O)N[C@@H](Cc2c[nH]c3ccccc23)C(=O)N[C@@H](Cc2ccc(O)cc2)C(=O)N[C@@H](CC(C)C)C(=O)N[C@H](C(=O)NCC(N)=O)CSCC(=O)N[C@@H](Cc2cc(F)c(F)c(F)c2)C(=O)N(C)[C@@H](Cc2ccccc2)C(=O)N1C` [Example 10149] ({CH2CO}-[Phe(3,4,5-F3)][NMeF][NMeNle][d(cisHyp)]DV[NMeF]D[dThz]WYLCG-NH2; thioether N-13), for which the IC50 under setting [1] lay in the range of 1 to 9.9 nM.

Regarding `CCCC[C@H]1C(=O)N2C[C@H](O)C[C@@H]2C(=O)N[C@@H](CC(=O)O)C(=O)N[C@@H](C(C)C)C(=O)N(C)[C@@H](Cc2ccccc2)C(=O)N[C@@H](CCC(=O)O)C(=O)N2CSC[C@@H]2C(=O)N[C@@H](Cc2c[nH]c3ccccc23)C(=O)N[C@@H](Cc2ccc(O)cc2)C(=O)N[C@@H](CCO)C(=O)N[C@H](C(=O)NCC(N)=O)CSCC(=O)N[C@@H](Cc2cc(F)c(F)c(F)c2)C(=O)N(C)[C@@H](Cc2ccccc2)C(=O)N1C` [Example 10150] ({CH2CO}-[Phe(3,4,5-F3)][NMeF][NMeNle][d(cisHyp)]DV[NMeF]E[dThz]WY[hSer]CG-NH2; thioether N-13), under setting [1], the IC50 was in the range of 1 to 9.9 nM.

`CCCC[C@H]1C(=O)N2C[C@H](O)C[C@@H]2C(=O)N[C@@H](CC(=O)O)C(=O)N[C@@H](C(C)C)C(=O)N(C)[C@@H](Cc2ccccc2)C(=O)N[C@@H](CC(=O)O)C(=O)N2CSC[C@@H]2C(=O)N[C@@H](Cc2c[nH]c3ccccc23)C(=O)N[C@@H](Cc2ccc(O)cc2)C(=O)N[C@@H](CCO)C(=O)N[C@H](C(=O)NCC(N)=O)CSCC(=O)N[C@@H](Cc2cc(F)c(F)c(F)c2)C(=O)N(C)[C@@H](Cc2ccccc2)C(=O)N1C` [Example 10151] ({CH2CO}-[Phe(3,4,5-F3)][NMeF][NMeNle][d(cisHyp)]DV[NMeF]D[dThz]WY[hSer]CG-NH2; thioether N-13): the IC50 under setting [1] was in the range of 1 to 9.9 nM.

With `CCCC[C@H]1C(=O)N2C[C@H](O)C[C@@H]2C(=O)N[C@@H](CC(=O)O)C(=O)N[C@@H](C(C)C)C(=O)N(C)[C@@H](Cc2ccccc2)C(=O)N[C@@H](CCCN)C(=O)N2CCC[C@@H]2C(=O)N[C@@H](Cc2c[nH]c3ccccc23)C(=O)N[C@@H](Cc2ccc(O)cc2)C(=O)N[C@@H](CCO)C(=O)N[C@H](C(=O)NCC(N)=O)CSCC(=O)N[C@@H](Cc2cc(F)c(F)c(F)c2)C(=O)N(C)[C@@H](Cc2ccccc2)C(=O)N1C` [Example 10152] ({CH2CO}-[Phe(3,4,5-F3)][NMeF][NMeNle][d(cisHyp)]DV[NMeF][Orn][dP]WY[hSer]CG-NH2; thioether N-13), the IC50 under setting [1] was in the range of 1 to 9.9 nM.

As for `CCCC[C@H]1C(=O)N2C[C@H](O)C[C@@H]2C(=O)N[C@@H](CC(=O)O)C(=O)N[C@@H](C(C)C)C(=O)N(C)[C@@H](Cc2ccccc2)C(=O)N[C@@H](Cc2ccc(O)cc2)C(=O)N2CCC[C@@H]2C(=O)N[C@@H](Cc2c[nH]c3ccccc23)C(=O)N[C@@H](Cc2ccc(O)cc2)C(=O)N[C@@H](CCO)C(=O)N[C@H](C(=O)NCC(N)=O)CSCC(=O)N[C@@H](Cc2cc(F)c(F)c(F)c2)C(=O)N(C)[C@@H](Cc2ccccc2)C(=O)N1C` [Example 10153] ({CH2CO}-[Phe(3,4,5-F3)][NMeF][NMeNle][d(cisHyp)]DV[NMeF]Y[dP]WY[hSer]CG-NH2; thioether N-13), the IC50 under setting [1] fell in the range of 1 to 9.9 nM.
